Literature values in patent US20190209596A1, “METHODS OF TREATING DISEASES” (Boehringer Ingelheim International GmbH, priority 2015, published 2019).

Settings: metformin on its own, in the diabetic

## CN(C)C(=N)N=C(N)N [metformin]
  average improvement in the HbA1c value: 1.0-1.5%
